In US20230391772A1, “METHODS AND COMPOSITIONS FOR TARGETED PROTEIN DEGRADATION” (Ranok Therapeutics (Hangzhou) Co. Ltd., priority 2020, published 2023):

What was measured:
[1] = system: MIA PaCa-2 human pancreatic carcinoma; assay: MIA PaCa-2 CCK-8 proliferation assay; assay type: cell-based; settings: Homo sapiens, MIA PaCa-2, 72 h, MIA PaCa-2 cells
How it was run: (§1)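 MIA PaCa-2 (2 copies KRAS(G12C)), NCI-H358 and NCI-H23 (1 copy KRAS(G12C) each) were exposed to compound in 3-fold serial dilutions from 20 μM to 1.02 nM. Viability was read as CCK-8 absorbance, and % inhibition was computed against DMSO-treated cells, with cell-free DMSO medium as blank.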

KRAS(G12C) [2] = target: T1, KRAS(G12C) (Homo sapiens, UniProt P01116, G12C); assay: KRAS(G12C) Western blot protein degradation assay in MIA PaCa-2 cells; assay type: cell-based; set-up: host or cells: LU65A; settings: 48 hr; for inhibition at 0.1562 µM: 156.2 nM; for inhibition at 0.3125 µM: 312.5 nM; for inhibition at 0.625 µM: 625 nM; for inhibition at 1.25 µM: 1250 nM; for inhibition at 2.5 µM: 2500 nM; for inhibition at 5 µM: 5000 nM; for inhibition at 10 µM: 10,000 nM
Procedure: The following cancer cell lines were employed: BT-474 human breast carcinoma (ATCC, #HTB-20); MIA PaCa-2 human pancreatic carcinoma [2 copies KRAS(G12C)](ATCC, #CRL-1420); NCI-H23 human non-small cell lung cancer [1 copy KRAS(G12C)](ATCC, #CRL-5800); NCI-H358 human non-small cell lung cancer [1 copy KRAS(G12C)](ATCC, #CRL-5807); LU65A human lung carcinoma (Pharmaron, Beijing, China). Cell lines were cultured essentially according to ATCC and Pharmaron recommendations.
KRAS(G12C) Western Blot Protein Degradation Assay
The MIA PaCa-2 human pancreatic carcinoma cell line and LU65A human lung cancer cell line, which expresses KRAS(G12C), were seeded in 6- or 12-well tissue culture plates, and after 1 hr, test compounds were added at various concentrations and incubated at 37° C./5% CO2 for 48 hr (MIA Paca-2) and 6 hr (LU65A) respectively. Cells were then washed with cold PBS, aspirated and cold RIPA buffer containing a protease/phosphatase inhibitor cocktail was added to lyse cells. After centrifugation, the total protein concentrations of cell lysates were determined using the BCA protein assay. Samples were normalized for equivalent protein concentrations, 5×SDS-PAGE loading buffer added and denatured at 100° C. for 10 min. 20 μl of each sample/well was loaded on a SDS-PAGE gel and electrophoresed for 20 min at 80 V, then 120 V for 1.5 hr. Gels were then electroblotted to nitrocellulose membranes using a wet-transfer method at 250 mA for 2.5 hr. Membranes were incubated with blocking buffer for 1 hr and washed 3 times with TBST for 5 min. Membranes were then incubated with anti-KRAS (Sigma-Aldrich, #SAB1404011) and anti-β-Actin monoclonal antibodies (Cell Signaling Technology, #3700) diluted in blocking buffer at 4° C. overnight per the manufacturer's recommendations. After washing 3 times, blots were incubated with appropriately labeled secondary antibodies for 1 hr at room temperature and washed again. Fluorescence imaging and quantitation was performed using a LI-COR Odyssey. Results was analyzed using GraphPad Prism 7 software. Compound degradation of was determined by the following equation and DC50 values (the concentration at which 50% of the maximal degradation of KRAS occurs) calculated using GraphPad Prism 7 software:
% Inhibition=100−(D−B)/(S−B)*100%. • S: Fluorescence intensity of cells with antibody • D: Fluorescence intensity of compound-treated cells with antibody • B: Fluorescence intensity of cells without antibody

HSP90a protein = target: T2, HSP90a protein (Homo sapiens, UniProt P07900); assay: HSP90α-binding fluorescent polarization (FP) assay, FITC-geldanamycin probe; settings: FP competition with FITC-geldanamycin, 5 nM, 120 min at 25° C.
T2 construct: purchased BPS Bioscience 50298
Procedure: HSP90α-Binding Fluorescent Polarization (FP) Assay
Binding of test compounds to HSP90a protein was measured by fluorescent polarization (FP) using the HSP90a (N-terminal) Assay Kit (BPS Bioscience, #50298), following the manufacturer's instructions, except as noted. Fluorescently labeled HSP90-binding compounds, either the provided FITC-geldanamycin (5 nM final concentration) or RNK04010, a triazolone-based HSP90 binding small molecule labeled with BODIPY through a piperizine-phenyl linker (5 nM final concentration) were employed. A 2.5-fold serial dilution of each test compound ranging from 20 μM to 5.2 nM was assayed for binding to HSP90a. After the final step of adding HSP90a protein to each assay well, plates were mixed by brief shaking, incubated at 25° C. for 120 min for FITC-geldanamycin or 300 min for RNK04010, and fluorescence was measured using a PerkinElmer EnVision Plate Reader.

KRAS(G12C) [3] = target: T1, KRAS(G12C); assay: KRAS(G12C)/SOS1 homogeneous time-resolved fluorescence (HTRF) assay; set-up: purchased Cisbio 63ADK000CB16PEG; settings: absence of GTP, 4° C. for 3 hr, read-out: KRAS (G12C) binding
How it was run: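 Three-hour incubation at 4 °C of 3-fold compound dilutions (lowest 1.02 nM) with KRAS(G12C), SOS1 and detection reagents, GTP absent. Disruption of the KRAS(G12C)/SOS1 complex detected by time-resolved fluorescence.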

[4] = system: NCI-H358 human non-small cell lung cancer; assay: NCI-H358 CCK-8 proliferation assay; assay type: cell-based; settings: NCI-H358 cells, 72 hr
How it was run: as §1

T1 sequence (P01116 1-188 isoform P01116-2 G12C): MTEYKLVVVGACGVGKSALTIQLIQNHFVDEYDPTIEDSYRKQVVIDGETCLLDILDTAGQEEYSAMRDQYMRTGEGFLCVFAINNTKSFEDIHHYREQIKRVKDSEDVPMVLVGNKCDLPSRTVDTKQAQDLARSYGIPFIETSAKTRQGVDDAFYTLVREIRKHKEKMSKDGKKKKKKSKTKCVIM

Row | EC50 [1] | inhibition at 0.1562 µM (KRAS(G12C) [2]) | inhibition at 0.3125 µM (KRAS(G12C) [2]) | inhibition at 0.625 µM (KRAS(G12C) [2]) | inhibition at 1.25 µM (KRAS(G12C) [2]) | inhibition at 2.5 µM (KRAS(G12C) [2]) | inhibition at 5 µM (KRAS(G12C) [2]) | inhibition at 10 µM (KRAS(G12C) [2]) | IC50 (HSP90a protein) | IC50 (KRAS(G12C) [3]) | EC50 [4] | Compound
1 | < 100 nM | < 33% | < 33% | < 33% | 33 to 66% | 33 to 66% | 33 to 66% | 33 to 66% | 100 to 1000 nM | – | – | C=C(F)C(=O)N1CCN(c2nc(OC[C@@H]3CCN(C(=O)C4CCN(Cc5ccc(-n6c(C(=O)NCC(F)(F)F)nnc6-c6cc(C(C)C)c(O)cc6O)cc5)CC4)C3)nc3c2CCN(c2cccc4cccc(Cl)c24)C3)C[C@@H]1CC#N [Compound 168, 4-(4-((4-((R)-3-(((7-(8-chloronaphthalen-1-yl)-4-((S)-3-(cyanomethyl)-4-(2-fluoroacryloyl)piperazin-1-yl)-5,6,7,8-tetrahydropyrido[3,4-d]pyrimidin-2-yl)oxy)methyl)pyrrolidine-1-carbonyl)piperidin-1-yl)methyl)phenyl)-5-(2,4-dihydroxy-5-isopropylphenyl)-N-(2,2,2-trifluoroethyl)-4H-1,2,4-triazole-3-carboxamide]
2 | > 1000 nM | < 33% | < 33% | < 33% | < 33% | < 33% | < 33% | < 33% | 100 to 1000 nM | > 1000 nM | 100 to 1000 nM | C=CC(=O)N1CCN(c2nc(OC[C@@H]3CCCN3C(=O)C3CCN(Cc4ccc(-n5c(O)nnc5-c5cc(C(C)C)c(O)cc5O)cc4)CC3)nc3c2CCN(c2cccc4cccc(Cl)c24)C3)C[C@@H]1CC#N [Compound 139, 2-((S)-1-acryloyl-4-(7-(8-chloronaphthalen-1-yl)-2-(((S)-1-(1-(4-(3-(2,4-dihydroxy-5-isopropylphenyl)-5-hydroxy-4H-1,2,4-triazol-4-yl)benzyl)piperidine-4-carbonyl)pyrrolidin-2-yl)methoxy)-5,6,7,8-tetrahydropyrido[3,4-d]pyrimidin-4-yl)piperazin-2-yl)acetonitrile]
